Experimental data from ChEMBL document CHEMBL4665708, “Generation of Stilbene Antimicrobials against Multiresistant Strains of Staphylococcus aureus through Biotransformation by the Enzymatic Secretome of Botrytis cinerea” (J Nat Prod, 2020).
In brackets after ≈: the same amount, converted by molar mass. Activity calls are given as the source filed them. No cut-off for these calls is given here.

Experiments:
HepG2 = assay: Cytotoxicity against human HepG2 cells after 3 days by microplate reader analysis; assay type: cell-based; conditions: HepG2, 72 h
Pseudomonas aeruginosa = assay: Antimicrobial activity against Pseudomonas aeruginosa ATCC 27853 at 256 ug/ml after 24 hrs by broth microdilution assay; assay type: functional, organism-based; conditions: dose 256.0 µg/ml
Staphylococcus aureus [1] = assay: Antimicrobial activity against methicillin-resistant Staphylococcus aureus ATCC 33591 after 24 hrs by broth microdilution method; assay type: functional
MCF-10A = assay: Cytotoxicity against human MCF-10A cells after 3 days by microplate reader analysis; assay type: cell-based; conditions: 72 h
[2] = Selectivity ratio of IC50 for human MCF-10A cells to MIC for methicillin-resistant Staphylococcus aureus ATCC 33591; assay type: toxicity
Staphylococcus aureus [3] = assay: Antimicrobial activity against vancomycin-resistant Staphylococcus aureus 510 after 24 hrs by broth microdilution method; assay type: functional
[4] = Selectivity ratio of IC50 for human MCF-10A cells to MIC for vancomyicin-resistant Staphylococcus aureus 510; assay type: toxicity

Row | Compound | IC50 (HepG2) | Activity (Pseudomonas aeruginosa) | MIC (Staphylococcus aureus [1]) | IC50 (MCF-10A) | selectivity ratio [2] | MIC (Staphylococcus aureus [3]) | selectivity ratio [4]
1 | COc1cc(OC)c2c(c1)[C@H]1[C@H](c3ccc(O)cc3)c3c(OC)cc(OC)cc3[C@H]1[C@@H]2c1ccc(O)cc1 | 22 µM | inactive | 31 µM (≈ 15.8 µg/mL) | 24 µM | 0.7 |  | 
2 | COc1cc(OC)cc([C@@H]2[C@@H](c3ccc(O)cc3)c3c(O)cc(O)cc3[C@H]2[C@@H](OC)c2ccc(O)cc2)c1 |  | inactive | > 249 µM |  |  |  | 
3 | COc1cc(OC)cc([C@@H]2[C@@H](c3ccc(O)cc3)c3c(OC)cc(OC)cc3[C@H]2[C@@H](OC)c2ccc(O)cc2)c1 | 15 µM | inactive | 15 µM (≈ 8.14 µg/mL) | 17 µM | 1.1 |  | 
4 | COc1cc(OC)cc([C@@H]2[C@@H](c3ccc(O)cc3)c3c(OC)cc(OC)cc3[C@H]2[C@@H](O)c2ccc(O)cc2)c1 |  | inactive | 121 µM (≈ 64 µg/mL) |  |  |  | 
5 | COc1cc(OC)cc([C@@H]2[C@@H](c3ccc(O)cc3)c3c(OC)cc(OC)cc3[C@H]2[C@H](O)c2ccc(O)cc2)c1 |  | inactive | 121 µM (≈ 64 µg/mL) |  |  |  | 
6 | Oc1ccc([C@H]2Oc3ccc(/C=C/c4cc(O)cc(O)c4)cc3[C@@H]2c2cc(O)cc(O)c2)cc1 (relative stereo) | 48 µM | inactive | 35 µM (≈ 15.9 µg/mL) | 48 µM | 1.4 |  | 
7 | COc1cc(OC)cc(C(Oc2ccc(/C=C/c3cc(O)cc(O)c3)cc2)C(OC)c2ccc(O)cc2)c1 (centres undefined) | 29 µM | inactive | 62 µM (≈ 31.9 µg/mL) | 23 µM | 0.4 |  | 
8 | COc1cc(OC)cc([C@@H]2[C@@H](c3cc(OC)cc(OC)c3)[C@H](c3ccc(O)cc3)O[C@@H]2c2ccc(O)cc2)c1 | > 95 µM | inactive | 121 µM (≈ 64 µg/mL) | > 95 µM |  |  | 
9 | CN[C@H](CC(C)C)C(=O)N[C@H]1C(=O)N[C@@H](CC(N)=O)C(=O)N[C@H]2C(=O)N[C@H]3C(=O)N[C@H](C(=O)N[C@H](C(=O)O)c4cc(O)cc(O)c4-c4cc3ccc4O)[C@H](O)c3ccc(c(Cl)c3)Oc3cc2cc(c3O[C@@H]2O[C@H](CO)[C@@H](O)[C@H](O)[C@H]2O[C@H]2C[C@](C)(N)[C@H](O)[C@H](C)O2)Oc2ccc(cc2Cl)[C@H]1O [VANCOMYCIN] |  | inactive | 0.69 µM (≈ 1 µg/mL) |  |  | 22 µM (≈ 31.9 µg/mL) | 
10 | COc1cccc2c1C(=O)c1c(O)c3c(c(O)c1C2=O)C[C@@](O)(C(=O)CO)C[C@@H]3O[C@H]1C[C@H](N)[C@H](O)[C@H](C)O1 [DOXORUBICIN] | 1.18 µM |  |  | 0.31 µM |  |  | 
11 | COc1cc(OC)cc(C(C(OC)OC)C(c2cc(OC)cc(OC)c2)C(c2ccc(O)cc2)c2ccc(O)cc2)c1 (centres undefined) | 19 µM | inactive | 14 µM (≈ 8.05 µg/mL) | 19 µM | 1.4 |  | 
12 | Oc1ccc([C@@H]2c3c(O)cc(O)cc3[C@H]3[C@H](c4ccc(O)cc4)c4c(O)cc(O)cc4[C@@H]23)cc1 [PALLIDOL] |  | inactive | > 282 µM |  |  |  | 
13 | COc1cc(OC)c2c(c1)[C@@H]([C@@H](OC)c1ccc(O)cc1)[C@H](c1cc(O)cc(O)c1)[C@H]2c1ccc(O)cc1 |  | inactive | > 249 µM |  |  |  | 
14 | Oc1ccc(/C=C/c2cc(O)cc(O)c2)cc1 [RESVERATROL] |  | inactive | > 561 µM |  |  |  | 
15 | COc1cc(/C=C/c2ccc3c(c2)[C@H](c2cc(O)cc(O)c2)[C@@H](c2ccc(O)cc2)O3)cc(OC)c1 | 27 µM | inactive | 22 µM (≈ 10.6 µg/mL) | 66 µM | 32 | 2 µM (≈ 0.965 µg/mL) | 32
16 | COc1cc(OC)cc([C@H]2c3cc(/C=C/c4cc(O)cc(O)c4)ccc3O[C@@H]2c2ccc(O)cc2)c1 (relative stereo) | 27 µM | inactive | 4 µM (≈ 1.93 µg/mL) | 29 µM | 7.2 | 4 µM (≈ 1.93 µg/mL) | 7.2
17 | COc1cc(OC)cc([C@@H](C(OC)OC)[C@@H](c2cc(O)cc(O)c2)C(c2ccc(O)cc2)c2ccc(O)cc2)c1 |  | inactive | > 234 µM |  |  |  | 
18 | COC(c1ccc(O)cc1)[C@@H]1c2cc(O)cc(O)c2[C@H](c2ccc(O)cc2)[C@H]1c1cc(O)cc(O)c1 (some centres undefined) |  | inactive | > 263 µM |  |  |  | 
19 | COc1cc(/C=C/c2ccc(OC(c3cc(O)cc(O)c3)C(OC)c3ccc(O)cc3)cc2)cc(OC)c1 (racemic) | 23 µM | inactive | 8 µM (≈ 4.12 µg/mL) | 27 µM | 3.4 | 4 µM (≈ 2.06 µg/mL) | 6.9
20 | COc1cc(OC)cc([C@@H]2[C@@H](c3ccc(O)cc3)c3c(O)cc(O)cc3[C@H]2[C@H](OC)c2ccc(O)cc2)c1 |  | inactive | > 249 µM |  |  |  | 
21 | COc1cc(/C=C/c2ccc(O)cc2)cc(OC)c1 [PTEROSTILBENE] |  | inactive | 31 µM (≈ 7.95 µg/mL) |  |  |  | 
22 | COc1cc(/C=C/c2ccc(OC(c3cc(OC)cc(OC)c3)C(O)c3ccc(O)cc3)cc2)cc(OC)c1 (centres undefined) |  | inactive | > 242 µM |  |  |  | 
23 | COc1cc(/C=C/c2ccc3c(c2)[C@H](c2cc(OC)cc(OC)c2)[C@@H](c2ccc(O)cc2)O3)cc(OC)c1 | 29 µM | inactive | > 251 µM | 25 µM | < 0.1 |  | 
24 | COc1cc(OC)cc([C@@H]2[C@@H](c3ccc(O)cc3)c3c(O)cc(O)cc3[C@H]2C(O)c2ccc(O)cc2)c1 (some centres undefined) |  | inactive | > 256 µM |  |  |  | 
